Data on one compound can be found in patent US4451464A, “Trifluoromethyl substituted tricyclic quinazolinones useful as tranquilizers” (Sandoz, Inc., priority 1982, dated 1984).

The experiment has as its target calf brain benzodiazepine receptors (calf brain cortex). The experiment is described as follows: Flunitrazepam Receptor Binding Assay, FBA TEST No. 2 (inhibition of specific 3H-flunitrazepam binding). To be noted: 1.5 nM [3H]-Flunitrazepam, 15 min at 0° C., read-out: IC50 (concentration which inhibits specific binding of 3H-Flunitrazepam by 50%). As for the experimental part: Substantially similar results are obtainable in a Flunitrazepam Receptor Binding Assay as described by Chang et al., Eur. J. Pharmacol., 48, 213 (1978): when carried out with the non-substantive modifications evident from the following description (hereinafter FBA TEST No. 2): Fresh calf brain cortex is homogenized in a 19 fold volume of Tris-HCl buffer pH 7.4, using a Brinkman Polytron PT 20 and centrifuged at 50'000 g for […]. The pellets are frozen at -20° C. and resuspended in a 400 fold volume of Tris-buffer pH 7.4 before use for the binding assay. The assay mixtures consist of 1.8 ml of homogenate (corresponding to 4.5 mg of original tissue), 0.1 ml [^3 H]-Flunitrazepam (final concentration 1.5 nM), and 0.1 ml of buffer for determination of total binding or 0.1 ml of unlabelled Flunitrazepam (final concentration 1 μM) for determination of nonspecific binding, respectively. To assess the potency of various drugs in inhibiting specific binding, drugs are added (instead of buffer) to give 5 to 9 different concentrations between 1 nM and 10 μM, each in duplicate. After incubation for 15 min at 0° C., the assay mixtures are rapidly filtered through Whatman GF/B filters and washed twice with 5 ml of ice cold Tris-buffer. The filters are counted in Rialuma on a LKB Rach-Beta Liquid Scintillation Counter. […]

As to `CCCCN1CCn2c1nc1ccc(C(F)(F)F)cc1c2=O` [Example 2, 1-n-butyl-7-trifluoromethyl-2,3-dihydro-imidazo[2,1-b]quinazolin-5(1H)-one], the IC50 is 15 nM.
